Read-outs that look alike come from different tables or passages of the source. Blank lines part the entries; values can stand above or below the compound they belong to.
Tests used:
[1] = Everted gut sac transport of REG, mucosal to serosal; assay type: in vitro ADME, rat; details: for Increase in drug permeability in presence of inhibitor: everted gut sac
Method: The everted sac method was used as previously described ([11]). All animal experiments were approved by the local ethics committee of Shahid Beheshti University of Medical Sciences (Tehran, Iran). Male Wistar rats weighing 230 and 250 g were fasted for 24 h but were allowed free access to water. Under deep anesthesia, the jejunum of the rat intestines (approximately 10 cm) was quickly excised, and the underlying mesenterium was removed. The segment was washed several times with normal saline solution and placed immediately into the oxygenated Krebs buffer (composition: NaCl 118 mM, NaHCO3 25 mM, KCl 4.7 mM, CaCl22.5 mM, MgSO4 1.2 mM, KH2PO4 1.2 mM, and d-glucose 11 mM). The intestine was carefully everted on a glass rod (3.0 mm diameter), filled with 2 mL of Krebs buffer, and divided into sacs approximately 4.5 cm in length with silk suture. The sacs were placed in the oxygenated buffer solution (pH 6.8). The solution was maintained at 37 °C with 95% O2 and 5% CO2 throughout the experiment.
Sacs were placed in 25 mL of oxygenated buffer solutions (pH 6.8) containing different concentrations of REG (10 to 100 µM) with or without the P-gp inhibitors at the typically used inhibitory concentrations: verapamil (100 µM), valspodar (5 µM), or ketoconazole (10 µM) ([12]-[14]). At various time points, 10, 20, 35, 45, 60, and 90 min, sacs were removed, blotted dry, and the serosal contents were collected. REG serosal concentration was determined by a validated HPLC method (Section 2.4). Each sac was weighed before and after the experiment to calculate the fluid volume inside the sac.
(§1) HPLC was conducted using a system consisting of a Wellchrom K-1001 HPLC pump and a K-2700 diode array UV/VIS spectrophotometric detector (Knauer, Germany). The analyses were conducted at ambient temperature on a Perfect Sil RP-18 (150 mm × 4.6 mm i.d., Merck). The optimal mobile phase for REG was a mixture of acetonitrile and phosphate buffer 0.02 M (60:40 V/V) delivered at a flow rate of 1 mL/min. The detection wavelength was set at 242 nm and the injection volume was 100 μL. The column temperature was maintained at room temperature. The calibration curves were linear over the concentration range of 100-1000 ng/mL (R^2 > 0.994). The intra-day and inter-day coefficients of the variation (CV) were all less than 5%.
(§2) Apparent permeability coefficients (Papp) of REG were calculated in everted gut sac and Caco-2 cell line according to the below equation ([19]): […]
(§3) Where the dQ/dt (ng/min) is drug permeation rate, A (cm^2) the cross sectional area, and C0 (ng/mL) the initial concentration of REG in the donor chamber. In Caco-2 cell, the Papp of REG was calculated in both apical to basolateral (papp.AB), and basolateral to apical (papp.BA) directions. The efflux ratio (ER) of the drug in Caco-2 cell was assessed by calculating the ratio of papp.BA to papp.AB (papp.BA/papp.AB). TEER was calculated based on the following equation ([16]): […]

[2] = Bi-directional transport of REG across Caco-2 cell monolayers; assay type: in vitro ADME; details: human, Caco-2, mean ± SD, n = 3
Method: (§4) Caco-2 cells (purchased from Pasteur Institute of Iran) were grown on 75 cm^2 plastic culture flasks, containing 15% (V/V) fetal bovine serum (FBS), 50% RPMI 1640, 34% DMEM and 1% (V/V) penicillin–streptomycin at 37 °C in a 95% humidified air with 5% CO2. The growth medium was changed every other day, and the cells were trypsinized using Trypsin-EDTA every 4 days for passage. The cells with passage numbers of 35-40 were used for the drug transport experiments.
(§5) When reaching 80–90% confluency, for transport study, the cells were seeded on polycarbonate filter inserts (with pore size of 0.4 µm, 1.13 cm^2 surface area, Korea) at a density of 5 × 10^4 cells/cm^2 and grown for 21 days to allow full expression of P-gp and appropriate tight junctions. To evaluate the integrity of cellular monolayer, the transepithelial electrical resistance (TEER) was measured and transport studies were conducted when the TEER values were more than 300-400 Ωcm^2. Before conducting drug transport experiments, the cells were washed twice with HBSS containing 25 mM HEPES (pH 7.4, 37 °C). Then, monolayers were pre-incubated at 37 °C for 30 min, and TEER values were measured. HBSS/HEPES buffer on both sides of the cell monolayers was then removed by aspiration and replaced with REG solution with various concentrations (20, 40 and 60 µM) on one side of the cell layer, apical (A) or basolateral (B), and fresh blank buffer on the other side. The volume of the buffer on the apical and basolateral side of the cell layer was 0.3 mL and 0.7 mL, respectively. The monolayers were incubated at 37 °C, placed in a shaker and shaken at 50 rpm during the transport process. The samples were taken from the receptor chamber (apical side or basolateral side in the case of B-A and A-B transport studies, respectively) at 30, 60, 90, 120 and 180 min, and then replaced with the same volume of the pre-warmed fresh buffer. Each experiment was repeated three times and REG concentration was determined by the HPLC system. The inhibition of REG efflux across Caco-2 cells was examined in the presence of two common P-gp inhibitors: verapamil (100 μM) and valspodar (5 μM).
as §1, §2, §3

Caco-2 cell monolayers [3] = experiment: as above; assay type: in vitro ADME; details: Caco-2 results, ER and effect of P-gp inhibitors
Method: as §4, §5, §1, §2, §3

P-gp = experiment: as above; assay type: in vitro ADME; details: human, Caco-2, mean ± SD, n = 3; for efflux ratio at 180 min, 40 µM: read-out: ER (efflux ratio, papp.BA/papp.AB)
Method: as §4, §5, §1, §2, §3

Caco-2 cell monolayers [4] = experiment: Lucifer yellow passage across Caco-2 monolayers (monolayer integrity); assay type: in vitro ADME; details: 100 µg/mL, 37 °C, all the experiments
Method: To determine the cell monolayers integrity, the TEER values and percent of Lucifer yellow transport across the cell monolayers were measured. The TEER was measured using an EVOM 2 Epithelial Voltohmmeter (World Precision Instrument, Sarasota, USA). The transport studies were conducted when the TEER values were more than 300-400 Ωcm^2. A reduction in the TEER recorded across a monolayer indicates the dilation of tight junctions or a disruption of the monolayer ([16], [17]). Lucifer yellow is a small hydrophilic fluorescent molecule that is easily detectable by spectrophotofluorometer (485 nm excitation and 535 nm emission). The paracellular transfer of Lucifer yellow was determined and served as an additional marker for the epithelial cell tightness. In each set of experiments, Lucifer yellow was added (100 µg/mL) to the inserts and its passage was evaluated at 37 °C ([18]).
Where TEERmono is the cell monolayer and porous membrane resistance, TEERblank the porous membrane resistance, and A the porous membrane surface area. The Lucifer yellow transport was calculated according to the following equation ([18]):
Lucifer Yellow Passage% = [(Ft − Fb)/(F0 − Fb)] × 100
Ft is the fluorescence intensity of Lucifer yellow across the monolayer, F0 the initial fluorescence intensity of Lucifer yellow on the donor side, and Fb the fluorescence intensity of the blank sample (HBSS/HEPES buffer alone).

[5] = pH 7.4, with valspodar 5 µM, REG 40 µM + valspodar 5 µM
[6] = pH 7.4, with verapamil 100 µM, REG 40 µM + verapamil 100 µM

Increase in drug permeability in presence of inhibitor ([1]; REG 20 µM plus ketoconazole 10 µM versus control): 3 fold | Increase in drug permeability in presence of inhibitor ([1]; REG 20 µM plus valspodar 5 µM versus control): 2.6 fold | Increase in drug permeability in presence of inhibitor ([1]; REG 20 µM plus verapamil 100 µM versus control): 3 fold | Apparent permeability coefficient (Papp) across everted gut sacs ([1]; REG 40 µM, mucosal to serosal, rat jejunum, pH 6.8, mean ± SD, n = 3): 1.23 ± 0.19 × 10^-5 cm/s | Apparent permeability coefficient (Papp) across everted gut sacs ([1]; REG 100 µM, mucosal to serosal, rat jejunum, pH 6.8, mean ± SD, n = 3): 3.29 ± 0.58 × 10^-5 cm/s | Papp at 90 min, 40 µM ([1]; male, Wistar, rat, pH 6.8, drug concentration 40 µM, read-out: Papp in everted gut sacs (abstract)): 12.3 ×10⁻⁶ cm/s | Papp at 90 min, 100 µM ([1]; male, Wistar, rat, pH 6.8, drug concentration 100 µM, read-out: Papp in everted gut sacs (abstract)): 32.9 ×10⁻⁶ cm/s | Papp at 90 min, 10 µM ([1]; male, Wistar, REG 10 µM, mucosal to serosal, rat jejunum, pH 6.8, mean ± SD, n = 3, read-out: Apparent permeability coefficient (Papp) across everted gut sacs): 12.1 ± 1.4 ×10⁻⁶ cm/s | Papp at 90 min, 20 µM ([1]; male, Wistar, REG 20 µM, mucosal to serosal, rat jejunum, pH 6.8, mean ± SD, n = 3, read-out: Apparent permeability coefficient (Papp) across everted gut sacs): 11.6 ± 0.9 ×10⁻⁶ cm/s | efflux ratio at 180 min, 20 µM ([2]; Caco-2, pH 7.4, REG 20 µM, read-out: ER (efflux ratio, papp.BA/papp.AB)): 0.64 ± 0.02 | efflux ratio at 180 min, 40 µM ([2]; Caco-2, pH 7.4, REG 40 µM, read-out: ER (efflux ratio, papp.BA/papp.AB)): 0.65 ± 0.05 | efflux ratio at 180 min, 60 µM ([2]; Caco-2, pH 7.4, REG 60 µM, read-out: ER (efflux ratio, papp.BA/papp.AB)): 0.8 ± 0.07 | Papp A→B at 180 min, 20 µM ([2]; pH 7.4, REG 20 µM): 16.7 ± 0.4 ×10⁻⁶ cm/s | Papp B→A at 180 min, 20 µM ([2]; pH 7.4, REG 20 µM): 10.7 ×10⁻⁶ cm/s | Papp A→B at 180 min, 40 µM ([2]; pH 7.4, REG 40 µM): 18.4 ± 1.2 ×10⁻⁶ cm/s | Papp B→A at 180 min, 40 µM ([2]; pH 7.4, REG 40 µM): 11.9 ×10⁻⁶ cm/s | Papp A→B at 180 min, 60 µM ([2]; pH 7.4, REG 60 µM): 18.3 ± 0.4 ×10⁻⁶ cm/s | Papp B→A at 180 min, 60 µM ([2]; pH 7.4, REG 60 µM): 14.6 ×10⁻⁶ cm/s | efflux ratio at 180 min, 40 µM (P-gp; Caco-2, pH 7.4, with valspodar 5 µM, REG 40 µM + valspodar 5 µM): 0.68 ± 0.07 | efflux ratio at 180 min, 40 µM (P-gp; Caco-2, pH 7.4, with verapamil 100 µM, REG 40 µM + verapamil 100 µM): 0.61 ± 0.09 | Papp A→B at 180 min, 40 µM (P-gp; [5]): 16.4 ± 0.5 ×10⁻⁶ cm/s | Papp B→A at 180 min, 40 µM (P-gp; [5]): 11.2 ×10⁻⁶ cm/s | Papp A→B at 180 min, 40 µM (P-gp; [6]): 19.6 ± 2.7 ×10⁻⁶ cm/s | Papp B→A at 180 min, 40 µM (P-gp; [6]): 11.8 ± 1.2 ×10⁻⁶ cm/s
Compound: CCOc1cc(CC(=O)N[C@@H](CC(C)C)c2ccccc2N2CCCCC2)ccc1C(=O)O [REG, Repaglinide]
P-gp substrate recognition (FDA guidance criteria) (Caco-2 cell monolayers [3]): cannot be considered as a distinct P-gp substrate

Transport (passage) of Lucifer yellow across the monolayer (Caco-2 cell monolayers [4]): < 0.3%
Compound: Lucifer yellow

Reference: PMC6487404, “An Investigation into the Role of P-Glycoprotein in the Intestinal Absorption of Repaglinide: Assessed by Everted Gut Sac and Caco-2 Cell Line” (Iranian Journal of Pharmaceutical Research : IJPR, 2019)
